From ChEMBL document CHEMBL1138005, “Carbonic anhydrase inhibitors: synthesis and inhibition of cytosolic/tumor-associated carbonic anhydrase isozymes I, II, and IX with sulfonamides incorporating 1,2,4-triazine moieties” (Bioorg Med Chem Lett, 2004)

How the values were obtained:
Carbonic anhydrase 1 = Carbonic anhydrase 1 (Homo sapiens, UniProt P00915)
Carbonic anhydrase 2 = Carbonic anhydrase 2 (Homo sapiens, UniProt P00918)
Carbonic anhydrase 9 = Carbonic anhydrase 9 (Homo sapiens, UniProt Q16790)

Carbonic anhydrase 1, sequence (P00915 whole entry): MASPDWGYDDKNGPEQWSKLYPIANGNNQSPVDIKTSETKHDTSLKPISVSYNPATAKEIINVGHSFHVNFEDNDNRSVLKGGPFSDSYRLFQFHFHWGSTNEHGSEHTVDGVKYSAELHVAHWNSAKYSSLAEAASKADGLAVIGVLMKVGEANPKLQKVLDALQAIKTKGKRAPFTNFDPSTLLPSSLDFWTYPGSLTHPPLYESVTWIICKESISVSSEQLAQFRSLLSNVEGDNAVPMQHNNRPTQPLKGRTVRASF

Compound | Ki (Carbonic anhydrase 1) [nM] | Ki (Carbonic anhydrase 2) [nM] | Ki (Carbonic anhydrase 9) [nM]
NS(=O)(=O)c1ccc(Nc2nc(Cl)nc(Cl)n2)cc1 | – | – | 0.15
COc1nc(Nc2ccc(S(N)(=O)=O)cc2)nc(OC)n1 | 85 | 36 | 150
COc1nc(NCc2ccc(S(N)(=O)=O)cc2)nc(OC)n1 | 116 | 112 | 155
COc1nc(NCCc2ccc(S(N)(=O)=O)cc2)nc(OC)n1 | – | 21 | 162
NS(=O)(=O)c1ccc(CNc2nc(=O)[nH]c(=O)[nH]2)cc1 | 94 | 130 | 360
NS(=O)(=O)c1ccc(Nc2nc(=O)[nH]c(=O)[nH]2)cc1 | 103 | 278 | 142
CCOc1nc(NCc2ccc(S(N)(=O)=O)cc2)nc(OCC)n1 | 110 | 84 | 0.34
NS(=O)(=O)c1ccc(CCNc2nc(Cl)nc(Cl)n2)cc1 | 75 | 21 | 138

Now from value to compound:

Ki (Carbonic anhydrase 1) [nM] | Ki (Carbonic anhydrase 2) [nM] | Ki (Carbonic anhydrase 9) [nM] | Compound
82 | 23 | – | CCOc1nc(NCCc2ccc(S(N)(=O)=O)cc2)nc(OCC)n1
90 | 15 | 1.3 | CNc1nc(NC)nc(NCc2ccc(S(N)(=O)=O)cc2)n1
88 | 27 | 1.1 | CNc1nc(NC)nc(NCCc2ccc(S(N)(=O)=O)cc2)n1
83 | – | – | CNc1nc(NC)nc(Nc2ccc(S(N)(=O)=O)cc2)n1
78 | 20 | 0.12 | CCOc1nc(Nc2ccc(S(N)(=O)=O)cc2)nc(OCC)n1
96 | 98 | 549 | NS(=O)(=O)c1ccc(CCNc2nc(=O)[nH]c(=O)[nH]2)cc1
